Results on 1 molecule are retold here after US8350097B2, “Therapeutic compounds” (priority 2007, dated 2013).

The subject of one data set is Male Sprague Dawley rats. Put plainly: Test A. Loss of Righting Reflex Assay. It counts as in vivo, rat. Here is the method: The ability of a compound of the invention to produce a sedative or hypnotic effect can be determined using standard pharmacological models which are well known to the art.
Test A. Loss of Righting Reflex Assay
Male Sprague Dawley rats were restrained in a holder and injection test compounds were injected in the tail vein (based on mg test compound/kg body weight). Following administration, the rats were placed in dorsal recumbent position on a heating blanket. The time to onset for the loss of the Righting Reflex (RR-ability of rat to right itself) was recorded, as was the duration of the loss of the RR.

The test system of data set [1] is commercial farm-bred swine. It counts as in vivo, pig. The following applies: pigs, 0.6 mg per kg per min. Here is the method:
Experiments were performed on commercial farm-bred swine of either sex (mean weight 33.6 kg). Anesthesia was induced with isoflurane. Intravascular access was obtained from an ear vein. Each pig was intubated and mechanically ventilated. Tissue oxygenation was monitored using continuous pulse oximetry placed on the tongue. Ventilation was monitored using an inspired/expired gas analyzer that measured oxygen, carbon dioxide, and potent inhalation agent concentrations. Ventilator settings were adjusted as needed to maintain steady state.
ECG was monitored throughout the study. Arterial blood pressure was monitored through the cannulated left femoral artery. MAP, systolic and diastolic arterial pressures and heart rate were collected every 5 seconds. An internal jugular vein was cannulated with a pulmonary artery catheter for thermodilution estimates of cardiac output and blood temperature. Body temperature was maintained at 37° C.

The subject of another data set is Male descented ferrets. The experiment in a line: Anti-emetic activity in ferrets (morphine sulfate-induced emesis). It counts as in vivo, ferret. The settings on record: 6 ferrets, 15 min IV infusion at 1 mg/kg/min then 0.5 mg/kg morphine sulfate s.c., 45 min observation. Here is the method: Male descented ferrets weighing 1.0-1.5 kg with vascular access ports in the jugular vein were housed on a 12/12-hour light/dark cycle under controlled temperature, with food and water provided ad libitum. On each study day, food was presented to ferrets one hour prior to dosing. Immediately prior to dosing, food and water were removed. A 1% Compound 1 formulation, prepared as described in Example 2 and formulated in accordance with Example 5, or […] was administered by IV infusion to the ferrets; see Wynn R L et al, 1993, Eur J Pharmacol 241, 42 re […] administration in ferrets. After administration of Compound 1 or […], animals were placed in clean, transparent cages (with lids) and left unrestrained for a 45-min observation period by an observer blinded to the specific treatment administered.
Episodes of retching and/or vomiting were considered separate episodes when the interval between retches and/or vomits exceeded 5 sec.
After termination of the infusion, 0.5 mg/kg morphine sulfate was administered subcutaneously and the ferrets were monitored for 45 min as described above. Six additional ferrets were administered subcutaneously 0.5 mg/kg morphine sulfate only.

In another data set the test system is pig. The experiment in a line: Test B. Anesthetized Pig Model (hemodynamic profile). In kind it is in vivo. The settings on record: equi-anesthetic doses (3 mg/kg vs propofol 6 mg/kg), FIGS. 1 and 2. Here is the method: The hemodynamic profile of a compound of the invention can be determined using standard pharmacological models which are well known to the art. The hemodynamic and anesthetic profiles of a compound of the invention were evaluated simultaneously using an anesthetized pig model (as described in Test B below). In this assay, the hemodynamic profile of a compound of the invention was compared to that of propofol at equi-anesthetic doses.
Test B. Anesthetized Pig Model
The anesthetic induction will be performed using a modification of a technique described by Ko et al (Ko et al., Lab Anim Sci 1993; 43: 476-80) for swine (Telazol, xylazine and ketamine given as an intramuscular injection). […]
A pilot dose-finding study will be performed to establish an appropriate infusion dose for each agent. […] Blood samples (1 mL each) may be collected at pre-dose and at 2, 4, 6, 8, 10, 12, 15, 20, 22, […], 25, 35, 50, 65 and 80 minutes after the start of the first infusion for pharmacokinetic purposes; EEG will be recorded continuously as the primary pharmacodynamic endpoint. […]
The EEG signal will be fed to a BIS analyzer (Aspect Medical) which provides continuous output of processed EEG data. The output consists of a “BIS” number calculated by a proprietary algorithm that ranges between 100 (fully conscious) and 0 (isoelectric) and indicates brain activity. […]

For the molecule `CC[C@@H](C)c1cccc(C(C)C)c1O` [Compound 1, (R)-(−)-2-sec-butyl-6-isopropylphenol], the “duration of anesthesia (loss of the Righting Reflex)” value with Male Sprague Dawley rats (7 mg/kg bolus in tail vein, 1% formulation) worked out at 14.9 min. Also, the “hypnotic potency compared to propofol” value in the data set with Male Sprague Dawley rats (Test A) is listed as “more potent than propofol”. The “IV infusion time producing maximal suppression of BIS (<10)” value in data set [1] was found to be 17.3 ± 1.9 min. In the data set with Male descented ferrets, the “retches in the presence of morphine” value is listed as 47 and the “vomits in the presence of morphine” value was 1. Besides, the “hemodynamic profile vs. propofol” value in the data set on pig is “improved hemodynamic profile”.
